ChEMBL document CHEMBL5465560, “Selectivity Literature for EUbOPEN Chemogenomic Library” (2024)
Each block holds one compound with its values, some of them ahead of it.

Experiments:
[1] = molecular target: Bone morphogenetic protein receptor type-1A (Homo sapiens, UniProt P36894); assay: Selectivity interaction (KinomeScan (DiscoverX)) EUB0001049a BMPR1A; conditions: at 1 µM
[2] = molecular target: T1, Megakaryocyte-associated tyrosine-protein kinase (Homo sapiens) (UniProt P42679); assay: Selectivity interaction (KinomeScan (DiscoverX)) EUB0001049a MATK; conditions: at 1 µM
T1 sequence (whole entry): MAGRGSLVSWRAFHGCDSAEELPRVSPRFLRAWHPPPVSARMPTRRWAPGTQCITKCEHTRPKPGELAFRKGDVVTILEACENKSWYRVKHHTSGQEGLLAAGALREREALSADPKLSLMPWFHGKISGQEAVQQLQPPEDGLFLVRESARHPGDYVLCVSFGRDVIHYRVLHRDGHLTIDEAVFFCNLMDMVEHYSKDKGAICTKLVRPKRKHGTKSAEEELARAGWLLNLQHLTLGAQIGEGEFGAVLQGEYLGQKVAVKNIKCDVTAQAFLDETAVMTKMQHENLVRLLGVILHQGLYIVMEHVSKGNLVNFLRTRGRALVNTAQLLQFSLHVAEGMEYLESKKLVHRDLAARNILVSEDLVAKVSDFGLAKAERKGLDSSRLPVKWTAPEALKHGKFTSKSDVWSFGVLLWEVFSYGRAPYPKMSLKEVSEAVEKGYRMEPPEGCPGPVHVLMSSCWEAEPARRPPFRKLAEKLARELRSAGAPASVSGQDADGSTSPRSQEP

[3] = molecular target: Fibroblast growth factor receptor 2 (Homo sapiens) (UniProt P21802); assay: Selectivity interaction (Ambit KINOMEscan and KiNATiv profiling in Jurkat cells) EUB0000090b FGFR2; assay type: cell-based; conditions: at 1 µM
[4] = molecular target: Ribosomal protein S6 kinase alpha-2 (Homo sapiens) (UniProt Q15349); assay: Selectivity interaction (ActivX KiNativ screen (kinase selectivity in THP-1 cell lysates)) EUB0000639a RPS6KA2; assay type: subcellular; conditions: lysate, at 1 µM
[5] = molecular target: eIF-2-alpha kinase GCN2 (Homo sapiens) (UniProt Q9P2K8); assay: Selectivity interaction (ActivX KiNativ screen (kinase selectivity in THP-1 cell lysates)) EUB0000639a EIF2AK4; assay type: subcellular; conditions: lysate, at 5 µM
[6] = molecular target: T2, Cytoplasmic tyrosine-protein kinase BMX (Homo sapiens) (UniProt P51813); assay: Selectivity interaction (KinomeScan (DiscoverX)) EUB0001079a BMX; conditions: at 1 µM
T2 sequence (whole entry): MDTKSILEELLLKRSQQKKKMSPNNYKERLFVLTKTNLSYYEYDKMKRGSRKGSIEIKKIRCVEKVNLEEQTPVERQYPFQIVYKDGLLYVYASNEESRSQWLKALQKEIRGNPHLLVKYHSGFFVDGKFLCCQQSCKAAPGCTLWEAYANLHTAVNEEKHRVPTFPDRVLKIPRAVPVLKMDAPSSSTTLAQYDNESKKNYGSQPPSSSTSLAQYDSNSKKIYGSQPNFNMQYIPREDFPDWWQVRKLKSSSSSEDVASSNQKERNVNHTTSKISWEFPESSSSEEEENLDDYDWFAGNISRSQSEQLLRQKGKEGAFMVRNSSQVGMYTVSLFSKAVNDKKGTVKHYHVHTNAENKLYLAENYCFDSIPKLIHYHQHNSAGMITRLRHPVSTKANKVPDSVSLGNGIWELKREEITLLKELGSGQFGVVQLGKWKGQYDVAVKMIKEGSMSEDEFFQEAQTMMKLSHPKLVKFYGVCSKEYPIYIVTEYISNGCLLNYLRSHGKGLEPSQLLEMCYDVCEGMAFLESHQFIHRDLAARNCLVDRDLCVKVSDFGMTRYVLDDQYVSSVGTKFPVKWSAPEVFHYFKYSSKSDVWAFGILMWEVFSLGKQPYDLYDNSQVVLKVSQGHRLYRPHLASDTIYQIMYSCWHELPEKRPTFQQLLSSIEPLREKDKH

[7] = molecular target: Tau-tubulin kinase 2 (Homo sapiens) (UniProt Q6IQ55); assay: Selectivity interaction (ProQinase) EUB0000171b TTBK2
[8] = molecular target: Bromodomain adjacent to zinc finger domain protein 2A (Homo sapiens, UniProt Q9UIF9)
[9] = molecular target: Serine/threonine-protein kinase Chk2 (Homo sapiens) (UniProt O96017); assay: Selectivity interaction (Upstate Kinase Profiler service (Millipore)) EUB0000056c CHEK2; conditions: at 1 µM
[10] = molecular target: T3, Serine/threonine-protein kinase tousled-like 1 (Homo sapiens) (UniProt Q9UKI8); assay: Selectivity interaction (KinomeScan (DiscoverX)) EUB0000045b TLK1
T3 sequence (whole entry): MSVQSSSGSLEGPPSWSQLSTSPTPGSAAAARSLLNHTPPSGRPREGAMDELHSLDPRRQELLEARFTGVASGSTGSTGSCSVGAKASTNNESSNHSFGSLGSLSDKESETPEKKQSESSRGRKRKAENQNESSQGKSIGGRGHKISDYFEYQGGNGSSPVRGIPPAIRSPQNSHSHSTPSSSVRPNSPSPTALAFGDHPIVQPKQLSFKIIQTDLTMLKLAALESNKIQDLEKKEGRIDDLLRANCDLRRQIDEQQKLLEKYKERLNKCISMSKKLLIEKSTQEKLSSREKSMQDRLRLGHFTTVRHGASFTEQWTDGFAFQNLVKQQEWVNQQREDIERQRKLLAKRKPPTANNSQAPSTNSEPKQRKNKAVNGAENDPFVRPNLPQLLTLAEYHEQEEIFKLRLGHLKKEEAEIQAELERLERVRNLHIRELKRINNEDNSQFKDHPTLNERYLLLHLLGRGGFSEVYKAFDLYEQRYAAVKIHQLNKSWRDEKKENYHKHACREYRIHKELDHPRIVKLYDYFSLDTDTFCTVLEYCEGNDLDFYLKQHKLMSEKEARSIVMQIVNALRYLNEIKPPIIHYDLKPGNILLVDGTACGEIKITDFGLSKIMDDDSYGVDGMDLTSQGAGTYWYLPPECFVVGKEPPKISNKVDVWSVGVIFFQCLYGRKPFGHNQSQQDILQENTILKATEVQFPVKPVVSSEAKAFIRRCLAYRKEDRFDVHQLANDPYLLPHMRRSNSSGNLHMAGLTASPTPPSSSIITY

[11] = molecular target: Mast/stem cell growth factor receptor Kit (Homo sapiens, UniProt P10721); assay: Selectivity interaction (KinomeScan (DiscoverX)) EUB0001619a KIT; conditions: at 1 µM
Sequence of Mast/stem cell growth factor receptor Kit (P10721 whole entry): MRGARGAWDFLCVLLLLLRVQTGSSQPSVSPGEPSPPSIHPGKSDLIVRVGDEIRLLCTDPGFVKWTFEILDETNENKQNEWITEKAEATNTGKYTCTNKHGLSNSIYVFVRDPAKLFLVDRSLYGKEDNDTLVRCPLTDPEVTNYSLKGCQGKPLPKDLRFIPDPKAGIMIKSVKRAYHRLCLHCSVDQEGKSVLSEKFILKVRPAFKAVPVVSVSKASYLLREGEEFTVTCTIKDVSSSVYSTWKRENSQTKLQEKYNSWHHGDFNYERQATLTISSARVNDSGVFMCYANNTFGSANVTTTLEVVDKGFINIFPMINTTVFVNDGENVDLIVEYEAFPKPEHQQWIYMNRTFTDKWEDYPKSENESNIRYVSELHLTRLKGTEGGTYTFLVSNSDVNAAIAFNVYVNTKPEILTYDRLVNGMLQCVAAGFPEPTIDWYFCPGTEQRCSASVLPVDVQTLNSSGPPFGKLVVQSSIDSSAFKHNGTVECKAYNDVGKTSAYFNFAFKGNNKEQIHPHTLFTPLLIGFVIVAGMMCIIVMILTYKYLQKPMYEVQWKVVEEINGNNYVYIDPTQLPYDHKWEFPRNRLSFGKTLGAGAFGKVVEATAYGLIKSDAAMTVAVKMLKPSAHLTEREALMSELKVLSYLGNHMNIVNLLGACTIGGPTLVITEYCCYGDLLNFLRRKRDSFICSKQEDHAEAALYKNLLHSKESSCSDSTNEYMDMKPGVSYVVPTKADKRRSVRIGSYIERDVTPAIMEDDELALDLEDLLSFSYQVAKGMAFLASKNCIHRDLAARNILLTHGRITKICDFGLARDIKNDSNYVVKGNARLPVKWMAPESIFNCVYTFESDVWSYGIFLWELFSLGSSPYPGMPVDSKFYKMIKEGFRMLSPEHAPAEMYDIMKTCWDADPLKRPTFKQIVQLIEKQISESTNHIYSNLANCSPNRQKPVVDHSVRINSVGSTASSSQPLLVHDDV

Sequence of Tau-tubulin kinase 2 (Homo sapiens) (Q6IQ55 whole entry, the tested form may be a part): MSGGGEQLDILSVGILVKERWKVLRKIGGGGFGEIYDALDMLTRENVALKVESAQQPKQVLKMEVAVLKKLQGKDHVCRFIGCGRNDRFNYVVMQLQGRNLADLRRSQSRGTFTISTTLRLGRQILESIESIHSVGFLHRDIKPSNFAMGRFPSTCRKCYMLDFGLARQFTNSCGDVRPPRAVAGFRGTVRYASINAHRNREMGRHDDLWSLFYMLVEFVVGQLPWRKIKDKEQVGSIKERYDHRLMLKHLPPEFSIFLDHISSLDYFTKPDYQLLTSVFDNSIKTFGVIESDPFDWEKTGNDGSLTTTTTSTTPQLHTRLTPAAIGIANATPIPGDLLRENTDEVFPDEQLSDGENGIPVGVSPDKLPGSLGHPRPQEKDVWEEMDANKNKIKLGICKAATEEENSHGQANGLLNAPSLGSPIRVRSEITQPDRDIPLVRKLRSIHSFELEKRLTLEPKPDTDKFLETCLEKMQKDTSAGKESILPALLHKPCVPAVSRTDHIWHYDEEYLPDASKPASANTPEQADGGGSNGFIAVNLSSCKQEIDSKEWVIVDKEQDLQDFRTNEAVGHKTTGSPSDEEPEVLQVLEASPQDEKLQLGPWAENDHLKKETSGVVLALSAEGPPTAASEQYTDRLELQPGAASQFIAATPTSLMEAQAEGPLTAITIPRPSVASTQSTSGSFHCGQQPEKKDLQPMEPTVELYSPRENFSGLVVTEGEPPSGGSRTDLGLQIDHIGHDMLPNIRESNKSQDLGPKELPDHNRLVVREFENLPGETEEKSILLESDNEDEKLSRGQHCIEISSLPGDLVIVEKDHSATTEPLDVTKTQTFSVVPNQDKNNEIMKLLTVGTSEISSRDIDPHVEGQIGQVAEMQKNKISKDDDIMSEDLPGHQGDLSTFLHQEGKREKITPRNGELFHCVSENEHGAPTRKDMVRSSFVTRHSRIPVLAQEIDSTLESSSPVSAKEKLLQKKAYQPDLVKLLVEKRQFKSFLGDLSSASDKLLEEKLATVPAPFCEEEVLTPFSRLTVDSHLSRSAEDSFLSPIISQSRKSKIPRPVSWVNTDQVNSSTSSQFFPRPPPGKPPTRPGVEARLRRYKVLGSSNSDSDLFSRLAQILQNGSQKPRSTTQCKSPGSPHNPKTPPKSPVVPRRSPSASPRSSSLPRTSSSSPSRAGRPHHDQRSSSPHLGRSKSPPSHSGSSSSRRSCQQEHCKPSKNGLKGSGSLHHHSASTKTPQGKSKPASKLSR
Sequence of Fibroblast growth factor receptor 2 (Homo sapiens) (P21802 22-821 limits assumed): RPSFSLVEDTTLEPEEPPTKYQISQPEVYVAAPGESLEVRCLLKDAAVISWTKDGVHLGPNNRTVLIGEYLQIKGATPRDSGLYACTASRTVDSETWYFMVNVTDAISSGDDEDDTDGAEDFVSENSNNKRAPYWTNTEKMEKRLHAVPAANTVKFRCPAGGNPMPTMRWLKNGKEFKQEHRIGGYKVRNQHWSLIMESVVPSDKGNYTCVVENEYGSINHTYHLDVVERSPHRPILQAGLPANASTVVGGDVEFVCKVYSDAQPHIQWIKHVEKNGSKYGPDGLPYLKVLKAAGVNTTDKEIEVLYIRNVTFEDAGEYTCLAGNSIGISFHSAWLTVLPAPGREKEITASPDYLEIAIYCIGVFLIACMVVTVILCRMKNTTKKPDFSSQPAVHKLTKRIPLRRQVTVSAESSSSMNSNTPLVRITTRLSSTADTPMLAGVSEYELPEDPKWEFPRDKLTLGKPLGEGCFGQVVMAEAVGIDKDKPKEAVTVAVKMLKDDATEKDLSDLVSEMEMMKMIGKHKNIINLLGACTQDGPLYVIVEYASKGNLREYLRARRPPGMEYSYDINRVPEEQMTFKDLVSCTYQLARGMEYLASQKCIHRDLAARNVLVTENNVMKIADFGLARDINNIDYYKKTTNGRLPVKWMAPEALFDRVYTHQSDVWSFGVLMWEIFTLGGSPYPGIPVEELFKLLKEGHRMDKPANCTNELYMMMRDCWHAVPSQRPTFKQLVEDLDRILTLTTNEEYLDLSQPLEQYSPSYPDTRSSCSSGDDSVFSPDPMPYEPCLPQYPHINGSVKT
Sequence of Ribosomal protein S6 kinase alpha-2 (Homo sapiens) (Q15349 whole entry): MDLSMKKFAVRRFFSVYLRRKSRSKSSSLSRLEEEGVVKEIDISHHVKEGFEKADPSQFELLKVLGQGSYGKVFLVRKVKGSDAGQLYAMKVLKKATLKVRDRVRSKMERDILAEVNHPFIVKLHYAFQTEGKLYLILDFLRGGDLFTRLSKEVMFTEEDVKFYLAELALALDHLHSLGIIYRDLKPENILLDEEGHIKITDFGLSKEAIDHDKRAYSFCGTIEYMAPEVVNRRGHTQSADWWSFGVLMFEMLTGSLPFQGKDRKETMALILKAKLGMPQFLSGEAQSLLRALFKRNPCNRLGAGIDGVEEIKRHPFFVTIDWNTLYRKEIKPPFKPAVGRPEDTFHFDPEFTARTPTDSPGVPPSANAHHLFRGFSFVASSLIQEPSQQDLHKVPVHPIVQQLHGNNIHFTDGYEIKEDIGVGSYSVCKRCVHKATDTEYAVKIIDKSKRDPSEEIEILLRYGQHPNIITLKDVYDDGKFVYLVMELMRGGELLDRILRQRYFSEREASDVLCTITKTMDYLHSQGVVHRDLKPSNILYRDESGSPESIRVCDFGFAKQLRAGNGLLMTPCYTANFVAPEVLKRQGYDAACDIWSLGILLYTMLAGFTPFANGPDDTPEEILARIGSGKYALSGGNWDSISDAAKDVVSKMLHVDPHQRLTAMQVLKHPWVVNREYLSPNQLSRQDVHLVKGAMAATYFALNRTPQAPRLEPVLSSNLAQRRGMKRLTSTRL
Sequence of Bone morphogenetic protein receptor type-1A (P36894 whole entry): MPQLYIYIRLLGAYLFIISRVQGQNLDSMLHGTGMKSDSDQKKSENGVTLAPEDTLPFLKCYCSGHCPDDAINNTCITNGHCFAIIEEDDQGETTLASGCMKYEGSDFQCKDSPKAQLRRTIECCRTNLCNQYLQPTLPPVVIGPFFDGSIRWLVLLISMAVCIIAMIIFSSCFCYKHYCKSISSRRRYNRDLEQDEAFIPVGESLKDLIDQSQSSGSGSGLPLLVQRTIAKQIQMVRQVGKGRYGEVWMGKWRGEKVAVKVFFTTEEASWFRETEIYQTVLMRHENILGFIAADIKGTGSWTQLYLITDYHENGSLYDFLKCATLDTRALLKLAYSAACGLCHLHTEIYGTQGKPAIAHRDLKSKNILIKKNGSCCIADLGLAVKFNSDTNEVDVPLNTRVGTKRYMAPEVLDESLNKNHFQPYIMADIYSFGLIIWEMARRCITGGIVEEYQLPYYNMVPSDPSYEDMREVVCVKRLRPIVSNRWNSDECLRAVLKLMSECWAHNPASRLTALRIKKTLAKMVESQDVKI
Sequence of Serine/threonine-protein kinase Chk2 (Homo sapiens) (O96017 whole entry): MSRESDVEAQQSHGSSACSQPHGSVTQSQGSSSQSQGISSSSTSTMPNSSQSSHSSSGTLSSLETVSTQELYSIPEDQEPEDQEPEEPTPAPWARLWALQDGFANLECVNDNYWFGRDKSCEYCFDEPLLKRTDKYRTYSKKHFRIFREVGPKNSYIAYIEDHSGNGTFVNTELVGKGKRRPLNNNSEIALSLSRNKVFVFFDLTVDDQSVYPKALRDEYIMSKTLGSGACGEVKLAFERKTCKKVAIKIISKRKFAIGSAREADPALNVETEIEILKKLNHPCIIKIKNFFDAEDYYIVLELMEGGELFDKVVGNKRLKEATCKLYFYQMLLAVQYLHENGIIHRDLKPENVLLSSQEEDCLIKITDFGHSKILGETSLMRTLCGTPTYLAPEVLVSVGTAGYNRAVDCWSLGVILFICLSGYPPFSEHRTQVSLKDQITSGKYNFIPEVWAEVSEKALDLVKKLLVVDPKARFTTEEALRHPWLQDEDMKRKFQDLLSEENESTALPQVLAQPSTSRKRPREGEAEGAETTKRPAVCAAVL

Structure (SMILES): COc1cc(Nc2nc(C)cc(-c3cnn4nc(OC)ccc34)n2)cc(C(F)(F)F)c1
% of control [1]: 100% | % of control [2]: 100%

Structure (SMILES): CN(C)C/C=C/C(=O)Nc1ccc(C(=O)N2CCCC(Nc3ncc(Cl)c(-c4c[nH]c5ccccc45)n3)C2)cc1 (stereo not drawn)
% of control [3]: 67%

% of inhibition [4]: 8% | % of inhibition [5]: 19.4%
Structure (SMILES): CC[C@@H]1[C@H](F)C(=O)N[C@@H]1COc1nccc2cc(C(N)=O)c(OC)cc12 [ZIMLOVISERTIB]

Structure (SMILES): Nc1cnc(N2CCc3cc(S(=O)(=O)Nc4c(F)cc(Cl)cc4F)cc(N4CCCC4=O)c32)nc1 [TP-020n]
% of control [6]: 100%

% of control ([7]; at 1 µM): 94% | % of control ([7]; at 5 µM): 93%
Structure (SMILES): C=CC(=O)Nc1cccc(C(=O)Nc2ccc(Nc3cc(-c4[nH]c(SC)nc4C)ccn3)cc2)c1

dTM [8]: < 2 K
Structure (SMILES): CN(C)CCCOc1ccc(-c2cc(NCCCn3cccn3)nc(S(C)(=O)=O)n2)cc1

% of inhibition [9]: 44%
Structure (SMILES): Cc1ccc(-c2ccc3c(ccc4sc5c(c43)NC[C@@H](C)NC5=O)n2)cn1

Structure (SMILES): C=CC(=O)Nc1cc(-n2c(=O)ccc3cnc4ccc(-c5ccc(NS(C)(=O)=O)cc5)cc4c32)ccc1C
% of control ([10]; at 1 µM): 86% | % of control ([10]; at 10 µM): 96%

Structure (SMILES): N#Cc1cccc(-c2c[nH]c3ncnc(N4CCOCC4)c23)c1
% of control [11]: 100%
